The values that follow come from patent US8841312B2, “Fused pyridine, pyrimidine and triazine compounds as cell cycle inhibitors” (Amgen Inc., priority 2007, dated 2014).

The target of one assay is Cdk6/CyclinD3 (Homo sapiens (Human), UniProt Q00534). The assay is described as follows: Cdk6 kinase inhibition assay with recombinant Cdk6/CyclinD3, Rb substrate, [33P]-ATP filter plate. In kind it is biochemical. To be noted: 25 μM ATP, read-out: Cdk 6 IC50. The gist of the method: (§1)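 Recombinant Cdk4/CyclinD1 or Cdk6/CyclinD3 phosphorylated Rb protein with [33P]-ATP for 1 h at room temperature. Protein was TCA-precipitated on filter plates and bound radioactivity counted. IC50 by nonlinear regression.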
Chain of Cdk6/CyclinD3 (Q00534 whole entry): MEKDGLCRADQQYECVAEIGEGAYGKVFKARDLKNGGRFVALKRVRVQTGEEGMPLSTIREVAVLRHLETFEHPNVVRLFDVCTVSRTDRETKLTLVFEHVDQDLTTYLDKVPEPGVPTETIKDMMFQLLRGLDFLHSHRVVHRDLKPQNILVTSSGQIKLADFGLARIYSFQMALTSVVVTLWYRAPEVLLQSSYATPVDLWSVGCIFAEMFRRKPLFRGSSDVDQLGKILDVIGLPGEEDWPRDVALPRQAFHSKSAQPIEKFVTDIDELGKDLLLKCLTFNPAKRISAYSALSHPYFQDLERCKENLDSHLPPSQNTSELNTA
Chain of Cdk6/CyclinD3 (P30281 whole entry partner): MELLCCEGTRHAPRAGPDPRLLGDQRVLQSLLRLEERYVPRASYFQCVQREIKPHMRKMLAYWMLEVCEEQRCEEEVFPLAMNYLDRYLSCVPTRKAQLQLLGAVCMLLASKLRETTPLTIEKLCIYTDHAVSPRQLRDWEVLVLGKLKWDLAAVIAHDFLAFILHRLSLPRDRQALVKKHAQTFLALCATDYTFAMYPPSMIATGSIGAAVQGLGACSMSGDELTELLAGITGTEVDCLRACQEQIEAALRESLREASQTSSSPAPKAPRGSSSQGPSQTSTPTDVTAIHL

Another assay addresses Cdk4/CyclinD1 (Homo sapiens (Human), UniProt P11802). Description: Cdk4 kinase inhibition assay with recombinant Cdk4/CyclinD1, Rb substrate, [33P]-ATP filter plate. Type of assay: biochemical. To be noted: 25 μM ATP, read-out: Cdk 4 IC50. The gist of the method:
as §1

Chain of Cdk4/CyclinD1 (P11802 whole entry): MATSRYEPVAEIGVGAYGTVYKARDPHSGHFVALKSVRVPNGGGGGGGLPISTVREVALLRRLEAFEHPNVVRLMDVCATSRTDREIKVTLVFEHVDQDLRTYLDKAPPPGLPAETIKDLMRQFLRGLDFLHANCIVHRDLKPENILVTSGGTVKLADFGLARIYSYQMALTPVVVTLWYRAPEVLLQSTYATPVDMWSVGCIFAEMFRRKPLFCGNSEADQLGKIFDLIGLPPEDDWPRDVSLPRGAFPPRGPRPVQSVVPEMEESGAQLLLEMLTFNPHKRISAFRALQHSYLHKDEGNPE
Chain of Cdk4/CyclinD1 (P24385 whole entry partner): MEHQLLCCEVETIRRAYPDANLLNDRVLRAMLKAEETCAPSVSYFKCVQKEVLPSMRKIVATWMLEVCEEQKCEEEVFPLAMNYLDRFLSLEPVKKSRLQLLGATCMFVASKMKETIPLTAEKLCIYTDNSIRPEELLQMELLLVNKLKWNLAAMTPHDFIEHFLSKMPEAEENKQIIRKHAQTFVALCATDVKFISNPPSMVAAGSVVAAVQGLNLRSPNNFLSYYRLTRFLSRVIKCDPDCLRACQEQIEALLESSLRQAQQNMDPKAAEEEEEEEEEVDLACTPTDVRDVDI

As usually defined, the IC50 is the concentration that gives 50% inhibition. In the case of `O[C@H]1CCN(c2ccc(Nc3ncc4c5ccnc(F)c5n(C5CCCC5)c4n3)nn2)C1` [Example 311], the results for the IC50 on Cdk6/CyclinD3 and at Cdk4/CyclinD1 were 0.024 µM and 0.0086 µM, respectively.
Taken in the same sequence, the figures for `CCCNC1CCN(c2ccc(Nc3ncc4c5ccncc5n(C5CCCC5)c4n3)nc2)CC1` [Example 466] were 0.014 µM and 0.0047 µM.
Taken in the same sequence, the figures for `O=c1[nH]ccc2c3cnc(Nc4ccc(N5CCNCC5)cn4)nc3n(C3CCCC3)c12` [Example 53, 9-Cyclopentyl-2-((5-(1-piperazinyl)-2-pyridinyl)amino)-7,9-dihydro-8H-pyrido[4′,3′:4,5]-pyrrolo[2,3-d]pyrimidin-8-one] were 0.011 µM and 0.0047 µM.
Taken in the same sequence, the figures for `CN(C)C1CCN(c2ccc(Nc3ncc4c5ccncc5n([C@H]5CCC[C@H]5O)c4n3)nn2)CC1` [Example 355] were 0.275 µM and 0.177 µM.
On to `CCN(CCO)C1CCN(c2ccc(Nc3ncc4c5ccncc5n(C5CCCC5)c4n3)nc2)CC1` [Example 473], for which the IC50 amounted to 0.028 µM on Cdk6/CyclinD3 and 0.0097 µM on Cdk4/CyclinD1.
For `C[C@@H](O)Cn1c2cnccc2c2cnc(Nc3ccc(N4CC[C@@H](O)C4)cn3)nc21` [Example 358] the same measures were 0.59 µM and 0.47 µM.
For `c1cc2c3cnc(Nc4ccc(N[C@H]5CCNC5)cn4)nc3n(C3CCCC3)c2cn1` [Example 64] the same measures were 0.024 µM and 0.0028 µM.
For `CN(C)CCCN(C)c1ccc(Nc2ncc3c4ccncc4n(C4CCCC4)c3n2)nn1` [Example 290] the same measures were 0.085 µM and 0.035 µM.
With `c1cc2c3cnc(Nc4ccc(N5CCCNCC5)cn4)nc3n(C3CCCC3)c2cn1` [Example 48, 9-cyclopentyl-N-(5-(1,4-diazepan-1-yl)-2-pyridinyl)-9H-pyrido[4′,3′:4,5]pyrrolo[2,3-d]pyrimidin-2-amine], the figures for the half-inhibitory concentration (IC50) on Cdk6/CyclinD3 and at Cdk4/CyclinD1 were 0.0056 µM and 0.0016 µM, respectively.
For `O[C@@H]1CCN(C2CCN(c3ccc(Nc4ncc5c6ccncc6n(C6CCCC6)c5n4)nn3)CC2)C1` [Example 449] the same measures were 0.036 µM and 0.012 µM.
As to `CNCCN(C)C1CCN(c2ccc(Nc3ncc4c5ccncc5n(C5CCCC5)c4n3)nn2)CC1` [Example 443], the IC50 on Cdk6/CyclinD3 came out at 0.016 µM; at Cdk4/CyclinD1, 0.0048 µM.
Taken in the same sequence, the figures for `C1=C(c2ccc(Nc3ncc4c5ccncc5n(C5CCCC5)c4n3)nc2)CCNC1` [Example 256, 9-Cyclopentyl-N-(1′,2′,3′,6′-tetrahydro-3,4′-bipyridin-6-yl)-9H-pyrido[4′,3′:4,5]pyrrolo[2,3-d]pyrimidin-2-amine] were 0.007 µM and 0.0013 µM.
For `COc1ccc2c3cnc(Nc4ccc(N5CCNCC5)cn4)nc3n(C3CCCC3)c2n1` [Example 182, 9-Cyclopentyl-7-methoxy-N-(5-(1-piperazinyl)-2-pyridinyl)-9H-pyrido[3′,2′:4,5]pyrrolo[2,3-d]pyrimidin-2-amine] the same measures were 0.016 µM and 0.113 µM.
As to `O=S1(=O)CCC(c2ccc(Nc3ncc4c5ccncc5n(C5CCCC5)c4n3)nc2)CC1` [Example 270, 9-Cyclopentyl-N-(5-(1,1-dioxidotetrahydro-2H-thiopyran-4-yl)-2-pyridinyl)-9H-pyrido[4′,3′:4,5]pyrrolo[2,3-d]pyrimidin-2-amine], the results for the IC50 at Cdk6/CyclinD3 and at Cdk4/CyclinD1 were 0.035 µM and 0.04 µM, respectively.
Taken in the same sequence, the figures for `C[C@H]1CN(c2ccc(Nc3ncc4c5ccncc5n(CCCO)c4n3)nc2)CCN1` [Example 351] were 0.176 µM and 0.08 µM.
For `CN(C)C1CCN(c2ccc(Nc3ncc4c5ccncc5n(C5CCC5)c4n3)nn2)CC1` [Example 347] the same measures were 0.027 µM and 0.027 µM.
For `CN(C)C1CCN(c2ccc(Nc3ncc4c5ccncc5n(CCCO)c4n3)nc2)CC1` [Example 350] the same measures were 0.102 µM and 0.074 µM.
Take `O[C@@H]1CCN(c2ccc(Nc3ncc4c5ccccc5n(C5CCCC5)c4n3)nc2)C1` [Example 304]: the results for the IC50 at Cdk6/CyclinD3 and on Cdk4/CyclinD1 were 0.027 µM and 0.046 µM, respectively.
For `CCC(CC)n1c2cnccc2c2cnc(Nc3ccc(N4CC[C@@H](O)C4)nn3)nc21` [Example 162, (3R)-1-(6-((9-(1-Ethylpropyl)-9H-pyrido[4′,3′:4,5]pyrrolo[2,3-d]pyrimidin-2-yl)-amino)-3-pyridazinyl)-3-pyrrolidinol] the same measures were 0.11 µM and 10 µM.
Taken in the same sequence, the figures for `CC[C@@H](C)n1c2cnccc2c2cnc(Nc3ccc(N4CCNCC4)cn3)nc21` [Example 320] were 0.011 µM and 0.0036 µM.
Taken in the same sequence, the figures for `OC1CCN(C2CCN(c3ccc(Nc4ncc5c6ccncc6n(C6CCCC6)c5n4)nc3)CC2)CC1` [Example 463] were 0.018 µM and 0.015 µM.
On to `c1cnc2c(c1)c1cnc(Nc3ccc(N4CCNCC4)cc3)nc1n2C1CCCC1` [Example 36, (9-Cyclopentyl-9H-pyrido[3′,2′:4,5]pyrrolo[2,3-d]pyrimidin-2-yl)-(4-piperazin-1-yl-phenyl)-amine], for which the IC50 at Cdk6/CyclinD3 was found to be 0.0044 µM; on Cdk4/CyclinD1, 0.00083 µM.
For `O=C(O)CN1CCN(c2ccc(Nc3ncc4c5ccncc5n(C5CCCC5)c4n3)nn2)CC1` [Example 218, (4-(6-((9-cyclopentyl-9H-pyrido[4′,3′:4,5]pyrrolo[2,3-d]pyrimidin-2-yl)amino)-3-pyridazinyl)-1-piperazinyl)acetic acid] the same measures were 0.0036 µM and 0.00139 µM.
For `O[C@H]1CCN(Cc2csc(Nc3ncc4c5ccncc5n(C5CCCC5)c4n3)n2)C1` [Example 165, (3S)-1-((2-((9-Cyclopentyl-9H-pyrido[4′,3′:4,5]pyrrolo[2,3-d]pyrimidin-2-yl)amino)-1,3-thiazol-4-yl)methyl)-3-pyrrolidinol] the same measures were 0.017 µM and 0.0085 µM.
For `O[C@@H]1CCCN(c2ccc(Nc3ncc4c5ccncc5n(C5CCCC5)c4n3)nn2)C1` [Example 104] the same measures were 0.014 µM and 0.0033 µM.
For `OC1CN(C2CCN(c3ccc(Nc4ncc5c6ccncc6n(C6CCCC6)c5n4)nc3)CC2)C1` [Example 474], the figures for the half-maximal inhibitory concentration (IC50) on Cdk6/CyclinD3 and at Cdk4/CyclinD1 were 0.012 µM and 0.005 µM, respectively.
For `CNC1CCN(c2ccc(Nc3ncc4c5ccnc(F)c5n(C5CCCC5)c4n3)nc2)CC1` [Example 310] the same measures were 0.013 µM and 0.005 µM.
For `CC1(C)CN(c2ccc(Nc3ncc4c5ccncc5n(C5CCC5)c4n3)nc2)CCN1` [Example 343] the same measures were 0.028 µM and 0.044 µM.
Taken in the same sequence, the figures for `c1cc2c3cnc(Nc4ccc(N5CCNCC5)cn4)nc3n(C3CCCC3)c2nn1` [Example 200, 9-Cyclopentyl-N-(5-(1-piperazinyl)-2-pyridinyl)-9H-pyrimido[5′,4′:4,5]pyrrolo[2,3-c]pyridazin-7-amine] were 0.013 µM and 0.036 µM.
Turning to `O=S1(=O)CCN(c2ccc(Nc3ncc4c5ccncc5n(C5CCCC5)c4n3)nc2)CC1` [Example 66], the IC50 came out at 0.073 µM on Cdk6/CyclinD3 and 0.0054 µM at Cdk4/CyclinD1.
Turning to `c1cc(-c2ccc(Nc3ncc4c5ccncc5n(C5CCCC5)c4n3)nn2)ccn1` [Example 259, 9-cyclopentyl-N-(6-(4-pyridinyl)-3-pyridazinyl)-9H-pyrido[4′,3′:4,5]pyrrolo[2,3-d]pyrimidin-2-amine], the IC50 is 0.101 µM on Cdk6/CyclinD3 and 0.049 µM at Cdk4/CyclinD1.
Taken in the same sequence, the figures for `c1cc2c3cnc(Nc4ccc(N5CCNCC5)nn4)nc3n(C3CCC3)c2cn1` [Example 346] were 0.016 µM and 0.054 µM.
Taken in the same sequence, the figures for `CC[C@@H](C)n1c2cnccc2c2cnc(Nc3ccc(N4CCNC(C)(C)C4)nn3)nc21` [Example 324] were 0.02 µM and 0.011 µM.
Taken in the same sequence, the figures for `CNC1CCN(c2ccc(Nc3ncc4c5ccncc5n(C5CCC5)c4n3)nn2)CC1` [Example 434] were 0.019 µM and 0.013 µM.
Turning to `O=S1(=O)CC=C(c2ccc(Nc3ncc4c5ccnc(F)c5n(C5CCCC5)c4n3)nc2)CC1` [Example 271, 9-Cyclopentyl-N-(5-(1,1-dioxido-3,6-dihydro-2H-thiopyran-4-yl)-2-pyridinyl)-8-fluoro-9H-pyrido[4′,3′:4,5]pyrrolo[2,3-d]pyrimidin-2-amine], the half-inhibitory concentration (IC50) at Cdk6/CyclinD3 and at Cdk4/CyclinD1 was 0.016 µM in each case.
With `c1ccc2c(c1)c1cnc(Nc3ccc(N4CCNCC4)cc3)nc1n2C1CCCCC1` [Example 21, (9-Cyclohexyl-9H-pyrimido[4,5-b]indol-2-yl)-(4-piperazin-1-yl-phenyl)-amine], the IC50 amounted to 0.00041 µM at Cdk6/CyclinD3 and 0.001 µM at Cdk4/CyclinD1.
Take `CN(C)C1CCN(c2ccc(Nc3ncc4c5ccccc5n(C5CCCC5)c4n3)nc2)CC1` [Example 309]: the IC50 at Cdk6/CyclinD3 stood at 0.012 µM; at Cdk4/CyclinD1, 0.011 µM.
Take `C[C@@H](CO)NC1CCN(c2ccc(Nc3ncc4c5ccncc5n(C5CCCC5)c4n3)nn2)CC1` [Example 442]: the IC50 was 0.013 µM at Cdk6/CyclinD3 and 0.0015 µM on Cdk4/CyclinD1.
Taken in the same sequence, the figures for `CC[C@@H](C)n1c2cnccc2c2cnc(Nc3ccc(N4CCC(N(C)C)CC4)nn3)nc21` [Example 316] were 0.059 µM and 0.036 µM.
For `C[C@@H](O)CNc1ccc(Nc2ncc3c4ccncc4n(C4CCCC4)c3n2)nn1` [Example 293] the same measures were 0.016 µM and 0.0046 µM.
For `CN(C)C1CCN(c2ccc(Nc3ncc4c5ccccc5n(C5CCCC5)c4n3)nn2)CC1` [Example 300], the 50% inhibitory concentration (IC50) on Cdk6/CyclinD3 is 0.048 µM; at Cdk4/CyclinD1, 0.022 µM.
Turning to `N[C@@H]1CCN(c2ccc(Nc3ncc4c5ccncc5n(C5CCCC5)c4n3)nn2)C1` [Example 109], the IC50 stood at 0.011 µM on Cdk6/CyclinD3 and 0.0019 µM on Cdk4/CyclinD1.
